Reference: patent US20240209061A1, “FUSION PROTEINS AND USES THEREOF” (Pfizer Inc., priority 2020, published 2024)
Entries after “also recorded” stand apart in the source; their conditions may differ.

Key:
recombinant soluble CD28 = molecular target: T1, recombinant soluble CD28 (Homo sapiens, UniProt P10747); assay: ELISA binding to recombinant soluble CD28; conditions: standard ELISA, FIG. 2A
T1 construct: Recombinant soluble CD28 and CTLA-4 proteins (from Creative BioMart, Product #CD28-3910H, CTLA-4-2232H) were immobilized; purchased Creative BioMart CD28-3910H
Description: Binding affinity of purified CD80-Fc fusion proteins (WT and variant) to recombinant soluble CD28 and CTLA-4 proteins was determined by standard ELISA. Recombinant soluble CD28 and CTLA-4 proteins (from Creative BioMart, Product #CD28-3910H, CTLA-4-2232H) were immobilized on 96 well microtiter plate (Thermo Scientific, Product #436110) in bicarbonate buffer at 4° C. overnight. After washing with 1×PBS containing 0.05% Tween 20 (wash buffer) plates were incubated with blocking buffer, 5% BSA in PBS, for 1 hour at room temperature. A serial dilution of CD80-Fc fusion proteins and human IgG1 isotype control antibody was prepared in blocking buffer, added into the plate and incubated at room temperature for 1 hour. Following washing 3× with wash buffer, 1:4000 dilution of HRP conjugated secondary anti-human IgG1 antibody (R&D Systems, MAB110-100) was added into the plate and incubated at room temperature for 1 hour. Plates were washed 3× with wash buffer and a 100 μl of LumiGlo (SeraCare, Product #5430-0040) reagent added into each well, incubated for 5 minutes at room temperature before reading luminescence signal in EnSight™ plate reader (PerkinElmer).

[1] = test system: Renca murine renal carcinoma tumor cells; assay: Renca murine renal carcinoma model; assay type: in vivo, mouse; conditions: for % tumor growth inhibition: Day 18; for # IFNγ-producing spots (splenic tumor-reactive T cells): spleen Day 9, average of n = 4 mice; for CD8^+ T cell infiltrates (% CD45): Renca, ~1 week after first dose, n=4
Description: Renca murine renal carcinoma tumor cells (1 million) were subcutaneously implanted in the hind flank of female Balb/c mice. Five days after tumor implantation, PBS vehicle control or variant CD80-Fc fusion proteins were dosed intravenously at 0.3 and 1 mg/kg (on Day 0 and Day 3) or 3 mg/kg (Day 0, Day 3 and Day 6). Tumor volume was determined by caliper measurements obtained in 2 dimensions and calculated as width^2×length/2. Error bars are depicted as ±SEM.
Pharmacodynamic (PD) modulation with variant CD80-Fc fusion proteins was assessed by measuring tumor-reactive T cells in the spleen using IFNγ ELIspot. Single-cell suspensions were generated from dissociated spleens taken at Day 9 after the first dose of CD80-Fc. Splenocytes were incubated with irradiated tumor cells overnight at 37° C., and the number of IFNγ-producing spots were measured using the IFNγ ELIspot Kit (BD Biosciences #551083).
(§1) Cytotoxic CD8^+ T cells are responsible for killing cancer cells and the measurement of CD8^+ T cells that have infiltrated tumors commonly correlates with efficacy for immune-oncology therapies. For all in vivo studies, tumors were collected ˜1 week after the first dose and dissociated by mincing, followed by incubation in an enzymatic digestion cocktail and homogenization. The resulting cell suspension was filtered and washed, and single cells were stained with antibodies to CD45, CD8, and a viability dye to detect tumor-infiltrating lymphocytes (TILs) by flow cytometry. Data were acquired on a BD LSRFortessa flow cytometer or a Cytek Aurora spectral flow cytometer. Table 31 and FIG. 18 show the amount of tumor-infiltrating CD8+ T cells expressed as a percentage of total immune cells (CD45+). Each value is the average of n=4 mice per group. Treatment with all variant CD80-Fc fusion proteins led to increase in CD8+ TILs in various tumor models.

[2] = test system: MC38 murine colorectal carcinoma cells; assay: MC38 murine colorectal carcinoma model, IV and SC dosing; assay type: in vivo, mouse; conditions: for CD8^+ T cell infiltrates (% CD45): MC38, n=4
Description: MC38 murine colorectal carcinoma cells (5×10^5) were subcutaneously implanted in the hind flank of female […] mice. When tumors reach ˜50 mm^3 (day 6 after implantation), mice were randomized. PBS vehicle control or variant CD80-Fc fusion proteins were dosed intravenously (IV) or subcutaneously (SC) with doses ranging from 0.01-3.0 mg/kg on Days 0 and 3. Tumor volume was determined by caliper measurements obtained in 2 dimensions and calculated as width^2×length/2. Error bars are depicted as ±SEM.
as §1

human PD-L1 = human PD-L1 (Homo sapiens, UniProt Q9NZQ7); assay: SPR (Biacore) binding to immobilized human PD-L1; conditions: Human PD-L1 immobilized at 60 μg/ml and 75 μg/ml
Description: (physiologic temperature) with a collection rate of 10 Hz. Purified soluble ligands were covalently coupled onto a CM5 sensor chip using an Amine coupling Kit (GE Healthcare, Product #BR100050) following the manufacturer's recommendations. […] The flow was again returned to running buffer and dissociation was monitored for 300 sec. Binding affinities and rate constants were determined by fitting the resulting double referenced (Myszka, D. G. J. Mol. Recognit. 12, 279-284 (1999)) sensorgram data to a 1:1 Langmuir model with Biacore Insight Evaluation software version 2.0 (GE Healthcare).
Binding of variant CD80-Fc to PD-L1 was not detected. FIG. 9A-9D show the SPR sensorgrams depicting binding of varying concentrations of CD80-WT-Fc and CD80-K89D-D90K-T28V-T57V-Fc to two different concentrations of immobilized human PD-L1 (60 μg/ml and 75 μg/ml).

human PD-L1, sequence (Q9NZQ7 19-238 limits assumed): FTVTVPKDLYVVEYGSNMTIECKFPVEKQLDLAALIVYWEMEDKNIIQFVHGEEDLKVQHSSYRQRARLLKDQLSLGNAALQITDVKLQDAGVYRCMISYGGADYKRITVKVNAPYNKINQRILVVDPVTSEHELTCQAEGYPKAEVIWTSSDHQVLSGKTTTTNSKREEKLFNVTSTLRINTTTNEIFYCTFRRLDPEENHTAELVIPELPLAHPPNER

Row | binding affinity to CD28 compared to WT CD80-Fc (recombinant soluble CD28) | binding to PD-L1 (human PD-L1) | Substance | Number of tumor-free mice ([1]; 0.3 mg/kg) | Day 18 tumor volume ([1]; 0.3 mg/kg IV, Day 0 and 3) [mm^3] | % tumor growth inhibition ([1]; 0.3 mg/kg) [%] | Number of tumor-free mice ([1]; 1 mg/kg) | Day 18 tumor volume ([1]; 1 mg/kg IV, Day 0 and 3) [mm^3] | % tumor growth inhibition ([1]; 1 mg/kg) [%] | Number of tumor-free mice ([1]; 3 mg/kg) | Day 18 tumor volume ([1]; 3 mg/kg IV, Day 0, 3 and 6) [mm^3] | % tumor growth inhibition ([1]; 3 mg/kg) [%] | # IFNγ-producing spots (splenic tumor-reactive T cells) ([1]; 3 mg/kg) | CD8^+ T cell infiltrates (% CD45) ([1]; 3 mg/kg) | CD8^+ T cell infiltrates (% CD45) ([2]; 0.01 mg/kg) | CD8^+ T cell infiltrates (% CD45) ([2]; 0.1 mg/kg) | CD8^+ T cell infiltrates (% CD45) ([2]; 1 mg/kg) | other results
1 | increased binding affinity to CD28 | – | CD80-D90Q-Fc: variant CD80 ECD (D90Q) fused to human IgG1 Fc | 4/10 | 248.2 ± 126.1 | 81.4 | 4/10 | 157.6 ± 64.2 | 89.6 | 8/10 | 72.0 ± 41.6 | 97.1 | 334.75 | 24.2 | – | – | – | –
2 | – | undetectable; also recorded: No binding | CD80-K89D-D90K-T28V-T57V-Fc: non-cysteine stabilized variant CD80-Fc fusion protein (K89D, D90K, T28V, T57V) | – | – | – | – | – | – | – | – | – | – | – | 6.26 | 10.81 | 23.58 | % tumor growth inhibition ([2]; Day 15, Intravenous 0.01 mg/kg): 17.9%; % tumor growth inhibition ([2]; Day 15, Intravenous 0.1 mg/kg): 25.2%; % tumor growth inhibition ([2]; Day 15, Intravenous 1 mg/kg): 59.9%; % tumor growth inhibition ([2]; Day 15, Intravenous 3 mg/kg): 83.8%; % tumor growth inhibition ([2]; Day 15, Subcutaneous 0.01 mg/kg): 11.1%; % tumor growth inhibition ([2]; Day 15, Subcutaneous 0.1 mg/kg): 27.1%; % tumor growth inhibition ([2]; Day 15, Subcutaneous 1 mg/kg): 73.7%; % tumor growth inhibition ([2]; Day 15, Subcutaneous 3 mg/kg): 84.4%; Day 15 tumor volume ([2]; Intravenous 0.01 mg/kg): 1042.1 mm^3; Day 15 tumor volume ([2]; Intravenous 0.1 mg/kg): 954.8 mm^3; Day 15 tumor volume ([2]; Intravenous 1 mg/kg): 535.3 mm^3; Day 15 tumor volume ([2]; Intravenous 3 mg/kg): 248.1 mm^3; Day 15 tumor volume ([2]; Subcutaneous 0.01 mg/kg): 1125.4 mm^3; Day 15 tumor volume ([2]; Subcutaneous 0.1 mg/kg): 931.7 mm^3; Day 15 tumor volume ([2]; Subcutaneous 1 mg/kg): 369.7 mm^3; Day 15 tumor volume ([2]; Subcutaneous 3 mg/kg): 240.9 mm^3
3 | – | – | CD80-K89Q-D90Q-E23C-A26C-Fc: disulfide stabilized variant CD80-Fc fusion protein (K89Q, D90Q, E23C, A26C) | – | – | – | – | – | – | – | – | – | – | – | 9.8 | 24.5 | 24.6 | % tumor growth inhibition ([2]; Day 16, Intravenous 0.01 mg/kg): 31.2%; % tumor growth inhibition ([2]; Day 16, Intravenous 0.1 mg/kg): 37.7%; % tumor growth inhibition ([2]; Day 16, Intravenous 1 mg/kg): 64.2%; % tumor growth inhibition ([2]; Day 16, Intravenous 3 mg/kg): 93.0%; % tumor growth inhibition ([2]; Day 16, Subcutaneous 1.5 mg/kg): 64.2%; % tumor growth inhibition ([2]; Day 16, Subcutaneous 3 mg/kg): 83.7%; Day 16 tumor volume ([2]; Intravenous 0.01 mg/kg): 905.1 mm^3; Day 16 tumor volume ([2]; Intravenous 0.1 mg/kg): 824.7 mm^3; Day 16 tumor volume ([2]; Intravenous 1 mg/kg): 495.3 mm^3; Day 16 tumor volume ([2]; Intravenous 3 mg/kg): 138.9 mm^3; CD8^+ T cell infiltrates (% CD45) ([2]; 3 mg/kg): 41.3 % CD45; Day 16 tumor volume ([2]; Subcutaneous 1.5 mg/kg): 495.6 mm^3; Day 16 tumor volume ([2]; Subcutaneous 3 mg/kg): 252.2 mm^3
4 | increased binding affinity to CD28 | – | CD80-K89Q-D90Q-Fc: variant CD80 ECD (K89Q, D90Q) fused to human IgG1 Fc | 2/10 | 743.2 ± 159.5 | 37.4 | 3/10 | 192.6 ± 89.3 | 86.1 | 8/10 | 43.2 ± 21.8 | 99.8 | 152.17 | 36.7 | – | – | – | –
5 | – | detectable binding | CD80-WT-Fc: wild-type human CD80 extracellular domain fused to human IgG1 Fc (C220S) [reference compound] | 5/10 | 199.0 ± 114.0 | 85.6 | 5/10 | 79.6 ± 25.5 | 96.2 | 6/7 | 73.0 ± 69.0 | 93.7 | 288.5 | 38.6 | – | – | – | # IFNγ-producing spots (splenic tumor-reactive T cells) ([1]; 0.3 mg/kg): 373.67; # IFNγ-producing spots (splenic tumor-reactive T cells) ([1]; 1 mg/kg): 271.08
